Columns and labels:
[1] = Observed clearance ratio and fraction reabsorbed (Freab, Freab′) calculated from CLR, fu,p and GFR; settings: for Apparent Freab / Apparent Freab’: calculated from observed CLR, fu,p and GFR; for Freab: observed/apparent, 1 - CLR/(GFR x fu,p), GFR 120 mL/min
[2] = pKa, potentiometric AstraZeneca in-house assay (or ACD / BioByte); settings: measured, potentiometric
From the text: (§1) The pKa values associated with ionisable centres identified within a given drug were used to calculate the fraction of drug ionised at pH 6.5. Drugs were then classified into groups as follows: drugs with > 50% unionised at pH 6.5 were classified as “Neutral”; drugs with > 50% ionised as mono −/di −/tri-protic acids or bases were classified as “Acid” or “Base”, respectively; “Zwitterions” were classified as drugs with > 50% ionised, with the major ionised species having no net charge; all other drugs were classified as amphoteric. […] LogD6.5 for neutral, amphoteric and zwitterion drugs were assumed to be equal to LogD7.4.

[3] = LogD7.4 octanol-buffer, shake-flask (or ACD / BioByte); settings: octanol/buffer, pH 7.4
From the text: as §1

[4] = Ionisation classification at pH 6.5 from pKa; type: physicochemical; settings: predominant species (> 50%) at pH 6.5 from measured or calculated pKa
[5] = Papp-Freab′ calibration of Caco-2 Papp with reference drugs and CLR prediction; set-up: species or system human; settings: reference drugs; calibrated Caco-2 Papp after Hill equation fitting
From the text: To account for this and to allow the Caco-2 data in the present study to be transferable to other assay formats/laboratories, a Papp–Freab′ calibration method was explored by splitting the available Papp and Freab′ data into ‘reference’ and internal ‘validation’ subsets. […] The calibration approach is proposed as a pragmatic method to account for inter-assay/inter-laboratory differences; herein it is applied to the current dataset only, and not external data as intended for future studies.
In order to evaluate the application of Papp–Freab′ calibration (Eq. (17)), 11 drugs were selected as reference ‘calibrator’ drugs (Papp,ref) covering a representative range of Freab′ and Papp values (Table 5). The remaining 34 drugs were treated as an internal ‘validation’ set.

[6] = cited from earlier work; for CLR: healthy adult subjects, overall weighted mean of literature values, absolute (not normalised), ref Supplementary Results Table S2.1; for Overall weighted mean CLR: healthy subjects, plasma and urine data from same subjects, normalised for subject weight and body surface area where necessary; for Overall weighted mean CLR / CLR Observed: ref Table S2.1; for CLR Observed: overall weighted mean of values obtained from a literature survey
[7] = Caco-2 apparent permeability (Papp), apical to basolateral, pH 6.5-7.4 gradient, efflux inhibitor cocktail; settings: human, Caco-2, pH 6.5
Method: (§2) The assay was performed using the apical to basolateral pH gradient format of pH 6.5 to pH 7.4. […] The efflux transporter inhibitor cocktail was used to minimise the effect of efflux transporters expressed in Caco-2 cells (e.g. P-glycoprotein, BCRP and MRP2) on the estimate of apical to basolateral Papp of substrates for such transporters.

Caco-2 cell monolayers = experiment: as above; settings: Caco-2, apical to basolateral, pH 6.5 to 7.4, efflux inhibitor cocktail, 2 h
Method: as §2

in vitro = settings: human, Caco-2, pH 6.5
Method: as §2

[8] = LogD6.5 estimated from LogD7.4 and pKa; settings: octanol/buffer, pH 6.5
From the text: as §1

[9] = set-up: method as in Hammarlund et al., 1985; Swärd et al., 2005; settings: healthy subjects or cardiac surgery patients, well hydrated; ref Hammarlund et al., 1985; Swärd et al., 2005; cited from earlier work

With `C=CCOc1ccccc1OCC(O)CNC(C)C` (stereo not drawn) [Oxprenolol] the “Apparent Freab” value [1] was 0.443, the “Apparent Freab’” value [1] was 0.447 and the Freab [1] was 0.44. The pKa ([2]; pKa (base)) was 9.6, the logD [3] was 0.23 and the “Ionisation at pH 6.5” value [4] was “Base”. The “Papp,ref,calibrated” value [5] was 12.00 × 10^− 6 cm/s, the CLR [6] was 9.35 mL/min and the “Overall weighted mean CLR” value [6] was 9.4 mL/min. For the same molecule, the “CLR Observed” value [6] was 9.35 mL/min, the Papp A→B at 2 h [7] was 30 ×10⁻⁶ cm/s and the Papp (Caco-2 cell monolayers) was 29.95 × 10^− 6 cm/s.

For `NCC1(CC(=O)O)CCCCC1` [Gabapentin], the “Apparent Freab” value [1] was 0.183, the “Apparent Freab’” value [1] was 0.185 and the Freab [1] was 0.18. For the same molecule, the “Ionisation at pH 6.5” value [4] was “Zwitterion”, the Papp A→B (in vitro) was 0.67 ×10⁻⁶ cm/s and the CLR [6] was 95.1 mL/min. For the same molecule, the “Overall weighted mean CLR” value [6] was 95.1 mL/min and the “CLR Observed” value [6] was 95.05 mL/min.

In the case of `CCCNC(=O)NS(=O)(=O)c1ccc(Cl)cc1` [Chlorpropamide], the “Apparent Freab” value [1] is reported as 0.907, the “Apparent Freab’” value [1] is reported as 0.915 and the Freab [1] is reported as 0.91. The pKa ([2]; pKa (acid)) was 4.69, the “Ionisation at pH 6.5” value [4] was “Acid” and the logD [8] was 0.56. For the same molecule, the “Papp,ref,calibrated” value [5] was 111.60 × 10^− 6 cm/s, the CLR [6] was 0.56 mL/min and the “Overall weighted mean CLR” value [6] was 0.6 mL/min. For the same molecule, the “CLR Observed” value [6] was 0.56 mL/min, the Papp A→B at 2 h [7] was 88.1 ×10⁻⁶ cm/s and the Papp (Caco-2 cell monolayers) was 88.1 × 10^− 6 cm/s.

For `NS(=O)(=O)c1cc(C(=O)O)c(NCc2ccco2)cc1Cl` [Furosemide], the “increase in urine flow compared to control conditions” value [9] is listed as “up to 20 mL/ min”.

From PMC5074076, “Novel minimal physiologically-based model for the prediction of passive tubular reabsorption and renal excretion clearance” (European Journal of Pharmaceutical Sciences, 2016)
